The record followed here is ChEMBL document CHEMBL6096644, “Synthesis and structure-affinity relationships of spirocyclic σ1 receptor ligands with tetrahydropyran scaffold” (Eur J Med Chem, 2025).

One data set can be described thus: physchem. Conditions: n-octanol/MOPS aqueous buffer, pH 7.4.
Data set [1] is described as follows: in vitro. Particulars: human, human serum.
Description: Plasma protein binding in human serum by HPAC analysis
Data set [2] in a line: in vitro. Particulars: mouse, liver microsomes.
Description: Metabolic stability in mouse liver microsomes assessed as parent compound remaining measured after 90 mins in presence of NADPH/H+ by HPLC analysis

Description for physchem: Distribution coefficient, logD of compound in n-Octanol/MOPS aqueous buffer at pH 7.4 by shake-flask method based mass spectrometry analysis

As usually defined, the logD is the decadic logarithm of the distribution of all forms, ionised or not, between an organic phase and buffer at a given pH. Read a low logD as lower lipophilicity. `c1cc2c(cc1C1CCOC3(CCN(CC4CCCC4)CC3)C1)CCO2` (stereo not given) displayed a logD in the data set “physchem” of 2.34. The compound `Oc1cccc(CN2CCC3(CC2)CC(CCc2ccccc2)CCO3)c1` (stereo not given) returned a pH-dependent lipophilicity (logD) in the data set “physchem” of 3.33. One may read the fraction unbound as free concentration divided by total concentration. A lower fraction unbound goes with little free substance. By fraction remaining is commonly meant what is left of the initial amount, in per cent. A low value points to a greater loss. `O=c1oc2ccccc2n1C1CCOC2(CCN(Cc3ccccc3)CC2)C1` (stereo not given) showed a pH-dependent lipophilicity (logD) in “physchem” of 2.42. Also, the fraction unbound in the data set “in vitro [1]” was 0.15. For the same compound, the amount remaining at 1.5 h in the data set “in vitro [2]” was 74%.
